Source: patent publication US9822099B2, “Triazole derivatives” (priority 2013, dated 2017)
Marks after values point to notes of the source that are not given here.

test system: Sphaerotheca fuliginea; assay: Example E: in vivo preventive test on Sphaerotheca fuliginea (powdery mildew on cucurbits); conditions: 100 ppm of active ingredient; gherkin plants, preventive spray; evaluated 15 days after inoculation
Procedure: (§1) The young plants of gherkin are treated by spraying the active ingredient prepared as described above. Control plants are treated only with an aqueous solution of acetone/Dimethyl sulfoxide/Tween®. After 24 hours, the plants are contaminated by spraying the leaves with an aqueous suspension of Sphaerotheca fuliginea spores.

| Compound | Eff. % |
| --- | --- |
| OC(Cc1ccncc1Cl)(Cn1cncn1)C1(F)CC1 (centres unmarked) [Example I-7] | 100% |
| CC1(C(O)(Cc2cccnc2Cl)Cn2cncn2)CC1 (centres unmarked) [Example I-8] | 100% |
| OC(Cc1ccncc1F)(Cn1cncn1)C1(Cl)CC1 (centres unmarked) [Example I-18] | 100% |

test system: Venturia inaequalis; assay: Example O: Venturia test (apples)/preventive; type: in vivo; conditions: 100 ppm of active ingredient, preventive, evaluated 10 days after inoculation
Procedure: (§2) Solvent: 24.5 parts by weight of acetone • 24.5 parts by weight of dimethylacetamide Emulsifier: 1 part by weight of alkylaryl polyglycol ether To produce a suitable preparation of active compound, 1 part by weight of active compound is mixed with the stated amounts of solvent and emulsifier, and the concentrate is diluted with water to the desired concentration. To test for preventive activity, young plants are sprayed with the preparation of active compound at the stated rate of application.

| Compound | Eff. % |
| --- | --- |
| OC(Cc1ccncc1Cl)(Cn1cncn1)C1(F)CC1 (centres unmarked) [Example I-7] | 98% |
| CC1(C(O)(Cc2cccnc2Cl)Cn2cncn2)CC1 (centres unmarked) [Example I-8] | 100% |
| OC(Cc1ccncc1F)(Cn1cncn1)C1(Cl)CC1 (centres unmarked) [Example I-18] | 100% |

test system: Septoria tritici; assay: Example D: in vivo preventive test on Septoria tritici (leaf spot on wheat); conditions: 100 ppm of active ingredient; wheat plants, preventive spray; evaluated 24 days after inoculation
Procedure: as §1, with “wheat” for “gherkin”, “Septoria tritici” for “Sphaerotheca fuliginea”

| Compound | Eff. % |
| --- | --- |
| OC(Cc1ccncc1Cl)(Cn1cncn1)C1(F)CC1 (centres unmarked) [Example I-7] | 98% |
| CC1(C(O)(Cc2cccnc2Cl)Cn2cncn2)CC1 (centres unmarked) [Example I-8] | 94% |
| OC(Cc1ccncc1F)(Cn1cncn1)C1(Cl)CC1 (centres unmarked) [Example I-18] | 98% |

test system: Fusarium nivale (var. majus); assay: Example J: Fusarium nivale (var. majus)-test (wheat)/preventive; type: in vivo; conditions: 500 ppm of active ingredient, preventive, evaluated 5 days after inoculation
Procedure, shortened: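 Young wheat plants sprayed preventively with active compound (DMA/emulsifier concentrate diluted in water) at the stated rate, then sandblast-wounded and inoculated with conidia. Held in greenhouse at ~10 °C, ~100% RH. Efficacy scored 5 days post-inoculation: 0% = untreated control, 100% = no disease.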

| Compound | Eff. % |
| --- | --- |
| OC(Cc1ccncc1Cl)(Cn1cncn1)C1(F)CC1 (centres unmarked) [Example I-7] | 100% |
| CC1(C(O)(Cc2cccnc2Cl)Cn2cncn2)CC1 (centres unmarked) [Example I-8] | 100% |
| OC(Cc1ccncc1F)(Cn1cncn1)C1(Cl)CC1 (centres unmarked) [Example I-18] | 100% |

test system: Fusarium culmorum; assay: Example H: Fusarium culmorum-test (wheat)/curative; type: in vivo; conditions: 500 ppm of active ingredient, curative, evaluated 5 days after inoculation
Procedure: Solvent: 49 parts by weight of N,N-dimethylacetamide
Emulsifier: 1 part by weight of alkylaryl polyglycol ether
To produce a suitable preparation of active compound, 1 part by weight of active compound or active compound combination is mixed with the stated amounts of solvent and emulsifier, and the concentrate is diluted with water to the desired concentration.
To test for curative activity, young plants are slightly injured by using a sandblast and afterwards they are sprayed with a conidia suspension of Fusarium culmorum and placed for 24 hours in a greenhouse under a translucent incubation cabinet at a temperature of approximately 22° C. and a relative atmospheric humidity of approximately 100% and are subsequently sprayed with the preparation of active compound at the stated rate of application.
After the spray coating has been dried, the plants remain in the greenhouse under translucent incubation cloches at a temperature of approximately 22° C. and a relative atmospheric humidity of approximately 100%.
The test is evaluated 5 days after the inoculation. 0% means an efficacy which corresponds to that of the untreated control, while an efficacy of 100% means that no disease is observed.

| Compound | Eff. % |
| --- | --- |
| OC(Cc1ccncc1Cl)(Cn1cncn1)C1(F)CC1 (centres unmarked) [Example I-7] | 100% |
| CC1(C(O)(Cc2cccnc2Cl)Cn2cncn2)CC1 (centres unmarked) [Example I-8] | 100% |
| OC(Cc1ccncc1F)(Cn1cncn1)C1(Cl)CC1 (centres unmarked) [Example I-18] | 100% |

test system: Pyricularia oryzae; assay: not given; type: in vivo; conditions: 500 ppm of active ingredient; rice, preventive; evaluated 8 days after inoculation

| Compound | Eff. % |
| --- | --- |
| OC(Cc1ccncc1Cl)(Cn1cncn1)C1(F)CC1 (centres unmarked) [Example I-7] | 100% |
| CC1(C(O)(Cc2cccnc2Cl)Cn2cncn2)CC1 (centres unmarked) [Example I-8] | 100% |

test system: Botrytis cinerea; assay: Example A: in vivo preventive test on Botrytis cinerea (grey mould); conditions: 100 ppm of active ingredient; gherkin plants, preventive spray; evaluated 4 to 5 days after inoculation
Procedure: as §1, with “Botrytis cinerea” for “Sphaerotheca fuliginea”

| Compound | Eff. % |
| --- | --- |
| OC(Cc1ccncc1Cl)(Cn1cncn1)C1(F)CC1 (centres unmarked) [Example I-7] | 100% |
| CC1(C(O)(Cc2cccnc2Cl)Cn2cncn2)CC1 (centres unmarked) [Example I-8] | 87% |
| OC(Cc1ccncc1F)(Cn1cncn1)C1(Cl)CC1 (centres unmarked) [Example I-18] | 100% |

test system: Uromyces appendiculatus; assay: Example F: in vivo preventive test on Uromyces appendiculatus (bean rust); conditions: 100 ppm of active ingredient; bean plants, preventive spray; evaluated 11 days after inoculation
Procedure: as §1, with “bean” for “gherkin”, “Uromyces appendiculatus” for “Sphaerotheca fuliginea”

| Compound | Eff. % |
| --- | --- |
| OC(Cc1ccncc1Cl)(Cn1cncn1)C1(F)CC1 (centres unmarked) [Example I-7] | 100% |
| CC1(C(O)(Cc2cccnc2Cl)Cn2cncn2)CC1 (centres unmarked) [Example I-8] | 100% |
| OC(Cc1ccncc1F)(Cn1cncn1)C1(Cl)CC1 (centres unmarked) [Example I-18] | 97% |

test system: not given; assay: not given; conditions: method [a]: LC-MS at pH 2.7, 0.1% formic acid in water / acetonitrile gradient

| Compound | LogP |
| --- | --- |
| OC(Cc1ccncc1Cl)(Cn1cncn1)C1(F)CC1 (centres unmarked) [Example I-7] | 1.29^[a] |
| CC1(C(O)(Cc2cccnc2Cl)Cn2cncn2)CC1 (centres unmarked) [Example I-8] | 1.73^[a] |

same assay, conditions: pH 2.7

| Compound | LogP |
| --- | --- |
| OC(Cc1ccncc1F)(Cn1cncn1)C1(Cl)CC1 (centres unmarked) [Example I-18] | 1.29^[a] |

test system: Puccinia recondita; assay: Example B: in vivo preventive test on Puccinia recondita (brown rust on wheat); conditions: 100 ppm of active ingredient; wheat plants, preventive spray; evaluated 11 days after inoculation
Procedure: as §1, with “wheat” for “gherkin”, “Puccinia recondita” for “Sphaerotheca fuliginea”

| Compound | Eff. % |
| --- | --- |
| OC(Cc1ccncc1Cl)(Cn1cncn1)C1(F)CC1 (centres unmarked) [Example I-7] | 94% |
| CC1(C(O)(Cc2cccnc2Cl)Cn2cncn2)CC1 (centres unmarked) [Example I-8] | 94% |
| OC(Cc1ccncc1F)(Cn1cncn1)C1(Cl)CC1 (centres unmarked) [Example I-18] | 94% |

test system: Fusarium graminearum; assay: not given; type: in vivo; conditions: 500 ppm of active ingredient; barley, preventive; evaluated 5 days after inoculation

| Compound | Eff. % |
| --- | --- |
| OC(Cc1ccncc1Cl)(Cn1cncn1)C1(F)CC1 (centres unmarked) [Example I-7] | 100% |
| CC1(C(O)(Cc2cccnc2Cl)Cn2cncn2)CC1 (centres unmarked) [Example I-8] | 100% |
| OC(Cc1ccncc1F)(Cn1cncn1)C1(Cl)CC1 (centres unmarked) [Example I-18] | 100% |

test system: Podosphaera leucotricha; assay: Example M: Podosphaera test (apples)/preventive; type: in vivo; conditions: 100 ppm of active ingredient, preventive, evaluated 10 days after inoculation
Procedure: as §2, with “application. After the spray coating has dried on, the plants are inoculated with an aqueous spore suspension of the causal agent of apple mildew (Podosphaera leucotricha).” for “application.”

| Compound | Eff. % |
| --- | --- |
| OC(Cc1ccncc1F)(Cn1cncn1)C1(Cl)CC1 (centres unmarked) [Example I-18] | 97% |

test system: Pyrenophora teres; assay: Example C: in vivo preventive test on Pyrenophora teres (net blotch on barley); conditions: 100 ppm of active ingredient; barley plants, preventive spray; evaluated 14 days after inoculation
Procedure: as §1, with “barley” for “gherkin”, “Pyrenophora teres” for “Sphaerotheca fuliginea”

| Compound | Eff. % |
| --- | --- |
| OC(Cc1ccncc1Cl)(Cn1cncn1)C1(F)CC1 (centres unmarked) [Example I-7] | 92% |
| OC(Cc1ccncc1F)(Cn1cncn1)C1(Cl)CC1 (centres unmarked) [Example I-18] | 83% |

test system: Phakopsora pachyrhizi; assay: Example L: Phakopsora test (soybeans)/preventive; type: in vivo; conditions: 100 ppm of active ingredient, preventive, evaluated 7 days after inoculation

| Compound | Eff. % |
| --- | --- |
| OC(Cc1ccncc1Cl)(Cn1cncn1)C1(F)CC1 (centres unmarked) [Example I-7] | 94% |
| CC1(C(O)(Cc2cccnc2Cl)Cn2cncn2)CC1 (centres unmarked) [Example I-8] | 95% |
| OC(Cc1ccncc1F)(Cn1cncn1)C1(Cl)CC1 (centres unmarked) [Example I-18] | 95% |

test system: Leptosphaeria nodorum; assay: Example K: Leptosphaeria nodorum test (wheat)/preventive; type: in vivo; conditions: 500 ppm of active ingredient, preventive, evaluated 8 days after inoculation
Procedure: Solvent: 49 parts by weight of N,N-dimethylacetamide Emulsifier: 1 part by weight of alkylaryl polyglycol ether To produce a suitable preparation of active compound, 1 part by weight of active compound or active compound combination is mixed with the stated amounts of solvent and emulsifier, and the concentrate is diluted with water to the desired concentration. To test for preventive activity, young plants are sprayed with the preparation of active compound or active compound combination at the stated rate of application. After the spray coating has been dried, the plants are sprayed with a spore suspension of Leptosphaeria nodorum.

| Compound | Eff. % |
| --- | --- |
| OC(Cc1ccncc1Cl)(Cn1cncn1)C1(F)CC1 (centres unmarked) [Example I-7] | 100% |
| CC1(C(O)(Cc2cccnc2Cl)Cn2cncn2)CC1 (centres unmarked) [Example I-8] | 92% |
| OC(Cc1ccncc1F)(Cn1cncn1)C1(Cl)CC1 (centres unmarked) [Example I-18] | 100% |

test system: Blumeria graminis f. sp. hordei; assay: Example G: Blumeria test (barley)/preventive; type: in vivo; conditions: 500 ppm of active ingredient, preventive, evaluated 7 days after inoculation
Procedure, shortened: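 Active compound formulated in N,N-dimethylacetamide with alkylaryl polyglycol ether emulsifier, diluted in water, and sprayed onto young barley plants at the stated application rate. Once the coating dried, plants were dusted with Blumeria graminis f. sp. hordei spores as a preventive test.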

| Compound | Eff. % |
| --- | --- |
| OC(Cc1ccncc1Cl)(Cn1cncn1)C1(F)CC1 (centres unmarked) [Example I-7] | 100% |
| CC1(C(O)(Cc2cccnc2Cl)Cn2cncn2)CC1 (centres unmarked) [Example I-8] | 100% |
| OC(Cc1ccncc1F)(Cn1cncn1)C1(Cl)CC1 (centres unmarked) [Example I-18] | 100% |
